In experiment [1] the target is T1, Interstitial collagenase (Homo sapiens, UniProt P03956).
T1 sequence (P03956 whole entry): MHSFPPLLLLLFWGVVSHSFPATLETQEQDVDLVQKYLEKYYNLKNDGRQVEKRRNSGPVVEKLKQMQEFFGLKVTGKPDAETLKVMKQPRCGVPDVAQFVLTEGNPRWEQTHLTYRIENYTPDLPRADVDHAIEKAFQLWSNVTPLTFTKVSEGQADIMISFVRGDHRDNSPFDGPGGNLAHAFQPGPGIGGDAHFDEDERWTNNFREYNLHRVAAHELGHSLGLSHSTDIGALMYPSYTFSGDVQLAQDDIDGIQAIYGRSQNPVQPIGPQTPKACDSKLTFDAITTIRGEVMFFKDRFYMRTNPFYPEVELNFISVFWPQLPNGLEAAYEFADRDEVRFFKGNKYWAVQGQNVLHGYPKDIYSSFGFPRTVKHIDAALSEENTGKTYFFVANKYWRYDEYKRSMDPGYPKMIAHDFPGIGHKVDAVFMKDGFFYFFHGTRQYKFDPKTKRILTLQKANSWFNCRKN
The experiment in a line: Inhibition of matrix metalloprotease-1.

Experiment [2] deals with T2, Bone morphogenetic protein 1 (Homo sapiens, UniProt P13497).
T2 sequence (P13497 whole entry): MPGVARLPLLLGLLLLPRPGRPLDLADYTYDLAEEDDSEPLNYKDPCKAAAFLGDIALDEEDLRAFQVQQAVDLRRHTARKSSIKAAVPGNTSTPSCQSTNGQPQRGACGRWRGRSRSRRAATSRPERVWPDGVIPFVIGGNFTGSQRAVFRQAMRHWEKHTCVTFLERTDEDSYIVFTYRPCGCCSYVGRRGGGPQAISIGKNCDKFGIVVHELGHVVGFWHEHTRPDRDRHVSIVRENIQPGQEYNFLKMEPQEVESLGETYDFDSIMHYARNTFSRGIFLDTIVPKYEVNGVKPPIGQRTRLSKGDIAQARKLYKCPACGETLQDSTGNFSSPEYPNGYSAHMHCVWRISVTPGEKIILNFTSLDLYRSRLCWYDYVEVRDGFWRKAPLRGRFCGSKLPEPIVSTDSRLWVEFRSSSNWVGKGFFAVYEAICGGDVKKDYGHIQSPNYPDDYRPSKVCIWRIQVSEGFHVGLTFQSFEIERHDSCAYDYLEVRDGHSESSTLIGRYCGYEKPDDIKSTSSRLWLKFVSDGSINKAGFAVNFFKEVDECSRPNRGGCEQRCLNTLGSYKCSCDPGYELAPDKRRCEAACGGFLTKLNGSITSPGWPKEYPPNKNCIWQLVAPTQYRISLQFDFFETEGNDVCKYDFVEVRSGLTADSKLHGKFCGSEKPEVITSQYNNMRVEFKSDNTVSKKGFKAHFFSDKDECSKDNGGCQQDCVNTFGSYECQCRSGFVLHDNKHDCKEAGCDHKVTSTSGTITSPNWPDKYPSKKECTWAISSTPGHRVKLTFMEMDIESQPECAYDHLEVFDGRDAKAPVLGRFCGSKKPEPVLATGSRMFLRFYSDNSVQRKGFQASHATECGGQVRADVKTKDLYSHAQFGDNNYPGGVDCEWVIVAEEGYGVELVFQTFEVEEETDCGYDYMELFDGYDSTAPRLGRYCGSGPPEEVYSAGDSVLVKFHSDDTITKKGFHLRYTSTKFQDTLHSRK
Briefly: Ability to inhibit procollagen C-terminal proteinase (PCP) tested in vitro.

Experiment [3] concerns the target Neutrophil collagenase (Homo sapiens, UniProt P22894). Briefly: Inhibition of MMP-8.

Each structure is given as a SMILES string. Bounds are passed on as bounds.

Chain of Neutrophil collagenase (P22894 whole entry): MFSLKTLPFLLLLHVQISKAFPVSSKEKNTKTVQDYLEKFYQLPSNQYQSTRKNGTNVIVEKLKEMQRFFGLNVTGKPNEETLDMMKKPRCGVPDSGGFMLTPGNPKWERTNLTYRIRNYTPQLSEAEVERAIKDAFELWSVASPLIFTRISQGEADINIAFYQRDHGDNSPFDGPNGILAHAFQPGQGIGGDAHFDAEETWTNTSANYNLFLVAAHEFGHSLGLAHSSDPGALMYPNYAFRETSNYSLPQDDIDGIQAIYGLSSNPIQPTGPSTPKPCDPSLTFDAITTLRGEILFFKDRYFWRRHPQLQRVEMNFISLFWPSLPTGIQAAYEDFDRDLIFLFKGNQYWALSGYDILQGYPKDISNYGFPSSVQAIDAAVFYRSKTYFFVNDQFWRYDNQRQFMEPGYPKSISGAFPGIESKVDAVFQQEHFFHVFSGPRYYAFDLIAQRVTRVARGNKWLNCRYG

For orientation: Ki means the dissociation constant of the complex between target and ligand, obtained from inhibition or displacement. A lower Ki goes with a stronger hold on the target. As for `CCOC(=O)N1CCN(C(=O)CC[C@H](C(=O)NO)N(Cc2ccc3c(c2)OCO3)S(=O)(=O)c2c(C)cc(OC)c(C)c2C)CC1`, the values for the Ki in experiment [1], in experiment [2] and in experiment [3] were 32000 nM, 43 nM and 30000 nM, respectively.

Turning to `COc1ccc(S(=O)(=O)N(Cc2ccc3c(c2)OCO3)[C@H](CCC(=O)N2CCN(C(=O)Nc3cccc(OC)c3)CC2)C(=O)NO)cc1`, the inhibitory constant (Ki) in experiment [2] amounted to 105 nM. For `COc1ccc(S(=O)(=O)N(Cc2ccc3c(c2)OCO3)[C@H](CCC(=O)N2CCN(c3ccccn3)CC2)C(=O)NO)cc1`, the affinity in experiment [2] corresponds to a Ki of 210 nM. For the compound `COc1cc(C)c(S(=O)(=O)N(Cc2ccc3c(c2)OCO3)[C@H](CCC(=O)N2CCN(C(=O)OCc3ccccc3)CC2)C(=O)NO)c(C)c1C`, the values for the inhibition constant (Ki) in experiment [1], in experiment [2] and in experiment [3] were above 40000 nM, 100 nM and 35000 nM, respectively. Compound `COC(=O)CC[C@H](C(=O)NO)N(Cc1ccc(C)c([N+](=O)[O-])c1)S(=O)(=O)c1ccc(OC)cc1` yielded an inhibition constant Ki in experiment [2] above 40000 nM. In the case of `COc1ccc(NC(=O)N2CCN(C(=O)CC[C@H](C(=O)NO)N(Cc3ccc4c(c3)OCO4)S(=O)(=O)c3ccc(OC)cc3)CC2)cc1`, the affinity in experiment [2] corresponds to a Ki of 90 nM. On to `COc1ccc(S(=O)(=O)N(Cc2ccc3c(c2)OCO3)[C@H](CCC(=O)N(CCC#N)Cc2ccccc2)C(=O)NO)cc1`, for which affinity in experiment [2] was put at a Ki of 33 nM. This Ki is about 2.7-fold lower than that of the compound before. On to `COc1ccc(S(=O)(=O)N(Cc2ccc3c(c2)OCO3)[C@H](CCC(=O)N2CCC(Cc3ccccc3)CC2)C(=O)NO)cc1`, for which, in experiment [2], the Ki stood at 120 nM. On the same count and under the same terms, in the case of `COc1ccc(S(=O)(=O)N(Cc2ccc3c(c2)OCO3)[C@H](CCC(=O)N2CCN(C(=O)c3ccccc3)CC2)C(=O)NO)cc1` it was 35 nM; in that of `COc1ccc(S(=O)(=O)N(Cc2ccc3c(c2)OCO3)[C@H](CCC(=O)N(Cc2ccccc2)Cc2ccccc2)C(=O)NO)cc1`, 400 nM. Same read-out and setting: next, `COc1ccc(S(=O)(=O)N(Cc2ccc3c(c2)OCO3)[C@H](CCC(=O)NCC2CC2)C(=O)NO)cc1`: 660 nM.

Regarding `COc1ccc(S(=O)(=O)N(Cc2ccc3c(c2)OCO3)[C@H](CCC(=O)N2CCN(c3ccccc3)CC2)C(=O)NO)cc1`, the affinity in experiment [2], expressed as Ki, was 340 nM. For `COC(=O)CC[C@H](C(=O)NO)N(Cc1ccc(OC)cc1)S(=O)(=O)c1ccc(OC)cc1`, the Ki in experiment [2] is 15000 nM. On the same count and under the same terms, next, `COc1ccc(S(=O)(=O)N(Cc2ccc3c(c2)OCO3)[C@H](CCC(=O)N2CCN(C)CC2)C(=O)NO)cc1`: 1000 nM.

With `COC(=O)C[C@H](C(=O)NO)N(Cc1ccc2c(c1)OCO2)S(=O)(=O)c1ccc(OC)cc1`, in experiment [2], the Ki was found to be 950 nM. This Ki and that of the compound before are within 1.5-fold of each other.

Regarding `COc1cc(C)c(S(=O)(=O)N(Cc2ccc3c(c2)OCO3)[C@H](CCC(=O)N2CCN(c3ccccc3)CC2)C(=O)NO)c(C)c1C`, the Ki was above 40000 nM in experiment [1], 110 nM in experiment [2] and 13000 nM in experiment [3]. Take `COc1ccc(S(=O)(=O)N(Cc2ccc3c(c2)OCO3)[C@H](CCC(=O)N2CCN(Cc3ccccn3)CC2)C(=O)NO)cc1`: in experiment [2], the Ki is above 1000 nM. On to `COc1ccc(S(=O)(=O)N(Cc2ccc3c(c2)OCO3)[C@H](CCC(=O)N2CCN(Cc3cccnc3)CC2)C(=O)NO)cc1`, for which the affinity in experiment [2] corresponds to a Ki of 620 nM. `CCN(CC)C(=O)CC[C@H](C(=O)NO)N(Cc1ccc2c(c1)OCO2)S(=O)(=O)c1ccc(OC)cc1` came in with a Ki in experiment [2] of 1300 nM.

`COc1ccc(S(=O)(=O)N(Cc2ccc3c(c2)OCO3)[C@H](CCC(=O)N(CCc2ccccc2)Cc2ccccc2)C(=O)NO)cc1`: affinity in experiment [2] was put at a Ki of 100 nM. As for `COC(=O)CC[C@H](C(=O)NO)N(Cc1ccc(C(F)(F)F)cc1)S(=O)(=O)c1ccc(OC)cc1`, the inhibitory constant (Ki) in experiment [2] was above 40000 nM. For `COc1ccc(S(=O)(=O)N(Cc2ccc3c(c2)OCO3)[C@H](CCC(=O)N2CCNCC2)C(=O)NO)cc1`, the affinity in experiment [2], expressed as Ki, was 1200 nM. The compound `COc1ccc(S(=O)(=O)N(Cc2ccc3c(c2)OCO3)[C@H](CCC(=O)N2CCN(Cc3ccccc3)CC2)C(=O)NO)cc1` returned a Ki in experiment [2] of 740 nM. As to `COc1ccc(S(=O)(=O)N(Cc2ccc3c(c2)OCO3)[C@H](CCC(=O)NCc2ccc(-c3ccccc3)cc2)C(=O)NO)cc1`, in experiment [2], the affinity corresponds to a Ki of 11 nM. Regarding `COc1ccc(S(=O)(=O)N(Cc2ccc3c(c2)OCO3)[C@H](CCC(=O)N2CCN(C(C)=O)CC2)C(=O)NO)cc1`, the Ki amounted to 120 nM in experiment [1], 200 nM in experiment [2] and 9 nM in experiment [3]. Regarding `COc1cc(C)c(S(=O)(=O)N(Cc2ccc3c(c2)OCO3)[C@H](CCC(=O)N2CCN(C(C)=O)CC2)C(=O)NO)c(C)c1C`, the results for the Ki in experiment [1], in experiment [2] and in experiment [3] were 37000 nM, 63 nM and 7000 nM, respectively. `COc1ccc(S(=O)(=O)N(Cc2ccc3c(c2)OCO3)[C@H](CCC(=O)NCc2ccccn2)C(=O)NO)cc1` had an inhibitory constant (Ki) in experiment [2] of 530 nM.

The compound `COc1ccc(S(=O)(=O)N(Cc2ccc3c(c2)OCO3)[C@H](CCC(=O)NCC(C)C)C(=O)NO)cc1` showed an inhibition constant Ki in experiment [2] of 280 nM. Same read-out and setting: next, `COC(=O)CC[C@H](C(=O)NO)N(Cc1ccc(Br)cc1)S(=O)(=O)c1ccc(OC)cc1`: above 40000 nM; `COc1ccc(S(=O)(=O)N(Cc2ccc3c(c2)OCO3)[C@H](CCC(=O)N2CCN(C(=O)c3ccco3)CC2)C(=O)NO)cc1`: 40 nM; `COc1ccc(S(=O)(=O)N(Cc2ccc3c(c2)OCO3)[C@H](CCC(=O)N2CCN(Cc3ccncc3)CC2)C(=O)NO)cc1`: above 1000 nM. Same read-out and setting: next, `COc1ccc(S(=O)(=O)N(Cc2ccc3c(c2)OCO3)[C@H](CCC(=O)N(C)C)C(=O)NO)cc1`: 330 nM; `CCNC(=O)CC[C@H](C(=O)NO)N(Cc1ccc2c(c1)OCO2)S(=O)(=O)c1ccc(OC)cc1`: 1200 nM; `COc1ccc(S(=O)(=O)N(Cc2ccc3c(c2)OCO3)[C@H](CCC(=O)NCc2ccccc2)C(=O)NO)cc1`: 98 nM. Still for that read-out and setting: in the case of `COc1ccc(S(=O)(=O)N(Cc2ccc3c(c2)OCO3)[C@H](CCC(=O)NCCC(C)C)C(=O)NO)cc1` it was 20 nM; in that of `COc1ccc(S(=O)(=O)N(Cc2ccc3c(c2)OCO3)[C@H](CCC(=O)N2CCOCC2)C(=O)NO)cc1`, 190 nM. For `COc1ccc(S(=O)(=O)N(Cc2ccc3c(c2)OCO3)[C@H](CCC(=O)N2CCN(C(=O)OCc3ccccc3)CC2)C(=O)NO)cc1`, the inhibitory constant (Ki) in experiment [2] worked out at 260 nM.

Compound `COc1ccc(S(=O)(=O)N(Cc2ccc3c(c2)OCO3)[C@H](CCC(=O)NCC2CCCCC2)C(=O)NO)cc1` had a Ki in experiment [2] of 410 nM. Same read-out and setting: next, `COc1ccc(S(=O)(=O)N(Cc2ccc3c(c2)OCO3)[C@H](CCC(=O)NCc2cccnc2)C(=O)NO)cc1`: 160 nM. As to `CCOC(=O)N1CCN(C(=O)CC[C@H](C(=O)NO)N(Cc2ccc3c(c2)OCO3)S(=O)(=O)c2ccc(OC)cc2)CC1`, the inhibitory constant (Ki) in experiment [1] was found to be 90 nM; in experiment [2] it was 64 nM; in experiment [3] it was 6 nM.

Regarding `COc1ccc(S(=O)(=O)N(Cc2ccc3c(c2)OCO3)[C@H](CCC(=O)N2CCN(S(C)(=O)=O)CC2)C(=O)NO)cc1`, in experiment [2], affinity was put at a Ki of 340 nM.

`COC(=O)CC[C@H](C(=O)NO)N(Cc1ccc2c(c1)OCO2)S(=O)(=O)c1ccc(OC)cc1` registered a Ki in experiment [2] of 300 nM. The Ki values of the last two compounds are within 1.5-fold of each other.

The compound `COc1ccc(S(=O)(=O)N(Cc2ccc3c(c2)OCO3)[C@H](CCC(=O)N(CCC#N)Cc2cccnc2)C(=O)NO)cc1` showed a Ki in experiment [2] of 480 nM. `COc1ccc(S(=O)(=O)N(Cc2ccc3c(c2)OCO3)[C@H](CCC(=O)NCc2ccncc2)C(=O)NO)cc1`: the Ki in experiment [2] is 1170 nM.
